Experimental data taken from patent publication US12390458B2, “Therapeutic combination of quinoline derivative and antibody” (CHIA TAI TIANQING PHARMACEUTICAL GROUP CO., LTD., priority 2018, dated 2025).
Counter-ions that a name gives are not always drawn.

Tests used:
[1] = Body weight and tolerance of H22 tumor-bearing mice; format: in vivo
Method: The use and welfare of the laboratory animals were carried out in compliance with the provisions of Association for Assessment and Accreditation of Laboratory Animal Care, International (AAALAC). The health and death of the animals are monitored daily and routine examinations include observation of the effects of the test substance or drug on the daily performance of the animals, such as behavioral activities, weight changes, appearance, etc.
(§1) H22 cells were inoculated to each mouse subcutaneously, and when the tumor grew to 100-200 mm^3, the mice were randomly grouped and intragastrically (i.g.) administered or intraperitoneal (IP) injected with drug; the mice in the solvent group were intragastrically administrated with distilled water with the same volume; the administration volume was 0.1 mL/10 g body weight; specific administration dosages and regimes are shown in Table 4.

[2] = tested on: mouse liver cancer H22 subcutaneous xenograft tumor; assay: Efficacy on mouse liver cancer H22 subcutaneous xenograft tumor; format: in vivo; settings: for Mean tumor volume (mm^3) D0: D0, day of first administration (baseline), KM mice, 10 per group; for % T/C D17 / Tumor growth inhibition (%): anlotinib hydrochloride 1 mg/kg i.g. QD×17, lenvatinib mesylate 5 mg/kg i.g. QD×17, mPD-1 1 mg/kg IP 5 times; for % T/C D17 / Tumor growth inhibition (%) / Mean tumor volume (mm^3) D17: D17; for Mean tumor volume (mm^3) D17: anlotinib hydrochloride 1 mg/kg i.g. QD×17, lenvatinib mesylate 5 mg/kg i.g. QD×17, mPD-1 1 mg/kg IP D0, D3, D7, D10, D14; for Complete regression / Partial regression: number of animals out of 10 per group
Method: The H22 cells were cultured in a 10-cm petri dish with RPMI 1640 medium containing 10% fetal bovine serum, penicillin and streptomycin in an incubator at 37° C. and 5% CO2. Subculturing was carried out twice a week and cells were collected, counted and inoculated when the cells grew exponentially.
KM mice, 6-7 weeks old, female, purchased from Shanghai JSJ Laboratory Animal Co. Ltd. Production license No.: SCXK (Shanghai) 2013-0006; animal certification No.: 311620400013790. Breeding environment: SPF grade.
The experimental index is to study the influence of the drug on the tumor growth, and the specific index is T/C (%) or tumor growth inhibition TGI (%).
Tumor diameters were measured twice weekly with a vernier caliper and tumor volume (V) was calculated according to the following formula: V=½×a×b^2, where a and b represent length and width, respectively.
T/C (%)=(T−T0)/(C−C0)×100, where T and C are the tumor volumes of animals at the end of the experiment in the test group and control group, respectively; T0 and C0 are the tumor volumes of animals at the beginning of the experiment in the test group and control group, respectively. Tumor growth inhibition (TGI)(%)=100−T/C(%). Tumor growth inhibition (TGI)(%)=100−(T−T0)/T0×100 when tumor started to regress.
If the volume of tumor shrinks compared with its initial volume, i.e., T<T0 […], it is defined as partial regression (PR) of tumor; if the tumor completely disappears, it is defined as complete regression (CR) of tumor.
as §1
After the experiment was completed, or when the tumor volume of the animals reached the euthanization endpoint of 1500 mm^3, the animals were put to death through carbon dioxide inhalation, followed by dissecting to take the tumor tissue and weighing and photographing.

[3] = phase II trial; cited from earlier work
[4] = Open, multicenter phase Ib/II clinical study, first-line 14C12H1L1 plus anlotinib hydrochloride: adverse events; format: in vivo, human; settings: patients on combined 14C12H1L1 + anlotinib, events related to the labelled treatment; for TRAE (incidence of treatment-related adverse events) / ≥ grade 3 TRAEs: by Jun. 27, 2019
Excerpt: This example discloses the results of an early open, multicenter phase Ib/II clinical study on first-line treatment of unresectable hepatocellular carcinoma with combined use of 14C12H1L1 and anlotinib hydrochloride.
This study is an open, multicenter phase Ib/II clinical study aimed at evaluating the effectiveness, i.e. safety, of 14C12H1L1 in combination with anlotinib in the first line treatment of unresectable hepatocellular carcinoma.
Secondary endpoints: (1) disease control rate (DCR), duration of response (DOR), time to response (TTR), progression-free survival (PFS), and treatment past progression (TPP) being evaluated by investigators according to RECISIT v1.1; (2) overall survival (OS); (3) safety evaluation: incidence and severity of AEs, clinically significant abnormal laboratory test results.
14C12H1L1 injection, 100 mg/10 mL solution; manufacturer: Akeso Tiancheng Guangdong Co., Ltd.; stored at 2-8° C. in the absence of light.
Anlotinib hydrochloride capsules (FOCUS V®), 8 mg/capsule; manufacturer: Chia Tai Tianging Pharmaceutical Group Co., Ltd.; sealed and be away from light.
14C12H1L1 in combination with anlotinib, wherein the 14C12H1L1: 200 mg, Q3W intravenous injection; anlotinib: taken once a day, 8 mg each time, 14 days of treatment plus 7 days of interruption, i.e., a treatment cycle of 21 days.

[5] = tested on: advanced NSCLC; settings: phase III; Chinese patients; cited from earlier work

| Molecule | body weight / tolerance of tumor-bearing mice ([1]; D0-D17, anlotinib hydrochloride 1 mg/kg, lenvatinib mesylate 5 mg/kg, mPD-1 1 mg/kg) | Mean tumor volume (mm^3) D0 [2] | % T/C D17 [2] | Tumor growth inhibition (%) [2] | Mean tumor volume (mm^3) D17 [2] | Complete regression ([2]; same doses) | Partial regression ([2]; same doses) | body weight / tolerance of tumor-bearing mice ([1]; mouse, in vivo) | tumor growth / efficacy in words ([2]; D0-D17, same doses, comparison between groups) | overall survival [3] | progression-free survival [3] | TRAE (incidence of treatment-related adverse events) [4] | ≥ grade 3 TRAEs [4] | SAE [4] | TRAEs resulting in the withdrawal [4] | overall survival and progression-free survival [5] | tolerability [5] |
| --- | --- | --- | --- | --- | --- | --- | --- | --- | --- | --- | --- | --- | --- | --- | --- | --- | --- |
| COc1cc2c(Oc3ccc4[nH]c(C)cc4c3F)ccnc2cc1OCC1(N)CC1 [Anlotinib hydrochloride, 1-[[[4-(4-fluoro-2-methyl-1H-indol-5-yl)oxy-6-methoxyquinolin-7-yl]oxy]methyl]cyclopropylamine hydrochloride] | no symptom like obvious weight loss | 131.4 mm^3 | 38.3% | 61.7% | 975.3 mm^3 | 0 | 0 | – | – | – | – | – | – | – | – | – | – |
| COc1cc2nccc(Oc3ccc(NC(=O)NC4CC4)c(Cl)c3)c2cc1C(N)=O [Lenvatinib mesylate] | – | 127.6 mm^3 | 21.0% | 79% | 590.8 mm^3 | 0 | 0 | no symptom like obvious weight loss | obviously inhibits the growth | – | – | – | – | – | – | – | – |
| COc1cc2c(Oc3ccc4[nH]c(C)cc4c3F)ccnc2cc1OCC1(N)CC1 [Anlotinib, 1-[[[4-(4-fluoro-2-methyl-1H-indol-5-yl)oxy-6-methoxyquinolin-7-yl]oxy]methyl]cyclopropylamine] | – | – | – | – | – | – | – | – | – | potential benefit for overall survival | improve progression-free survival | 75% | 12.5% | 12.5% | 12.5% | extended overall survival and progression-free survival | well tolerated |
| 14C12H1L1: anti-PD-1 monoclonal antibody (Akeso Bioscience); CN106977602A; CDRs SEQ ID NO: 25-30 | – | – | – | – | – | – | – | – | – | – | – | 62.5% | 6.25% | 6.25% | 6.25% | – | – |
